Like-named read-outs stand apart in the source and are kept apart here.
Legend:
[1] = target: human TYK2 (JH2domain-pseudokinase) (Homo sapiens (Human), UniProt P29597); test: TYK2 JH2 Domain Binding Assay (KINOMEscan)
Method in brief: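 Competition binding of a DNA-tagged fusion of human TYK2 JH2 pseudokinase (G556–D888) with NFkB DNA-binding domain, from HEK293 extracts (<0.1 nM final), against immobilised ligand beads; 1 h shaking at room temperature, 0.9% DMSO. Bound kinase quantified by qPCR.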

[2] = target: Tyk2 kinase domain (DH1) (Homo sapiens (Human), UniProt P29597); test: Tyk2 Radioactive Kinase Assay; format: biochemical; conditions: for inhibition at 10 µM: read-out: Tyk2 JH1% Inhibition @ 10 μM
Tyk2 kinase domain (DH1), sequence (P29597 897-1176): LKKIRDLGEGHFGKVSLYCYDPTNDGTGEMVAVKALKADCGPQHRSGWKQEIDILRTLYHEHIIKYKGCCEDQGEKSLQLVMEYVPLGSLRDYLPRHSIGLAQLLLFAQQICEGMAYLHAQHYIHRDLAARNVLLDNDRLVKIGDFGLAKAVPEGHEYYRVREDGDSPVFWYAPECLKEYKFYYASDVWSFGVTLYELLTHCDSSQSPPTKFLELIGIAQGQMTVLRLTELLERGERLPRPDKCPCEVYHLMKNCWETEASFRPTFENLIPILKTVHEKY
Method in brief: (§1)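 Single-point screen: 10 μM test compound, radioactive kinase read-out, percent inhibition reported for each kinase domain.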

[3] = target: JAK2 kinase domain (JH1) (Homo sapiens (Human), UniProt O60674); test: JAK2 Radioactive Kinase Assay; format: biochemical; conditions: for inhibition at 10 µM: read-out: JAK2 JH1% Inhibition @ 10 μM
JAK2 kinase domain (JH1), sequence (O60674 849-1124): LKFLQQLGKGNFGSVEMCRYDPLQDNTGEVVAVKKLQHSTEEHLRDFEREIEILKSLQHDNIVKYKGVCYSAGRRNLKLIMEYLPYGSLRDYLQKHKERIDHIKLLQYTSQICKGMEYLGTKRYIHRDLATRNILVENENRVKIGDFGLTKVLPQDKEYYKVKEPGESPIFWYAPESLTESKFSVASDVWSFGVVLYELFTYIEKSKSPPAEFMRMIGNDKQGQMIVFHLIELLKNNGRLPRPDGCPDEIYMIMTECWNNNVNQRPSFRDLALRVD
Method in brief: as §1

human TYK2 (JH2domain-pseudokinase), sequence (P29597 556-888): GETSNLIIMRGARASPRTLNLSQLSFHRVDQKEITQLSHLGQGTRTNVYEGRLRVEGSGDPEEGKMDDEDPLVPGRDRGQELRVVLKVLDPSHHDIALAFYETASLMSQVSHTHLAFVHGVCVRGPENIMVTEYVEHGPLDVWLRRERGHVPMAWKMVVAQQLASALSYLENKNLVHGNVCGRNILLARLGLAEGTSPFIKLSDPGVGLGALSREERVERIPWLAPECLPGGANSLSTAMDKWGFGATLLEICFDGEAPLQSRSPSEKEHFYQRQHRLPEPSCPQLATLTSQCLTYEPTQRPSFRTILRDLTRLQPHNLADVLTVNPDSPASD

SMILES	Kd [1] [nM]	inhibition at 10 µM ([2]; 10 μM compound, 10 μM ATP) [%]	inhibition at 10 µM ([3]; 10 μM compound, 10 μM ATP) [%]	Tyk2 JH1% Inhibition @ 10 μM ([2]; compound at 10 μM, ATP 10 μM)	JAK2 JH1% Inhibition @ 10 μM ([3]; compound at 10 μM, ATP 10 μM)	inhibition at 10 µM ([2]; compound at 10 μM, ATP 10 μM) [%]	inhibition at 10 µM ([3]; compound at 10 μM, ATP 10 μM) [%]
CNc1cc(Nc2cccn([C@H]3CCC[C@@H](OC)C3)c2=O)nc2c(C(=O)N[C@@H]3CC[C@H]3O)cnn12 [I-1123]	< 0.2	< 50	< 50	–	–	–	–
CNc1cc(Nc2cccn(C3CCOCC3)c2=O)nc2c(C(=O)N[C@H]3CC[C@H]3O)cnn12 [I-557]	0.2 to 1	–	–	A (percent inhibition at 10 μM lower than 50)	A (percent inhibition at 10 μM lower than 50)	–	–
Cc1cc(Nc2cc(N)n3ncc(C(N)=O)c3n2)c(=O)n(-c2cnn(C)c2)n1 [I-74]	0.2 to 1	–	–	–	–	< 50	< 50
CNc1cc(Nc2cccn(-c3cccc(C)n3)c2=O)nc2c(C(=O)NC3CCC3)cnn12 [I-130, N-cyclobutyl-5-((6′-methyl-2-oxo-2H-[1,2′-bipyridin]-3-yl)amino)-7-(methylamino)pyrazolo[1,5-a]pyrimidine-3-carboxamide]	< 0.2	–	–	–	–	< 50	< 50
CNc1cc(Nc2cccn(-c3ccccc3F)c2=O)nc2c(C(=O)NC[C@H](C)CO)cnn12 [I-1077]	0.2 to 1	< 50	< 50	–	–	–	–
Cc1cc(Nc2cc(N)n3ncc(C(N)=O)c3n2)c(=O)n(-c2cnn(C)c2)c1 [I-32]	0.2 to 1	–	–	–	–	< 50	< 50
CNc1cc(Nc2cccn(C3CCCCC3)c2=O)nc2c(C(=O)NC[C@@H](C)CO)cnn12 [I-1119]	< 0.2	< 50	< 50	–	–	–	–
CNc1cc(Nc2cccn(-c3ncc(C)s3)c2=O)nc2c(C(=O)N[C@H]3CC[C@@H]3O)cnn12 [I-1071]	1 to 10	< 50	< 50	–	–	–	–
CNc1cc(Nc2cc(Cl)cn([C@H]3CCCOC3)c2=O)nc2c(C(=O)N[C@H]3[C@@H]4COC[C@@H]43)cnn12 [I-800]	0.2 to 1	–	–	–	–	< 50	< 50
CNc1cc(Nc2cccn(C3CCCCC3)c2=O)nc2c(C(=O)NCC(C)CO)cnn12 (stereo not drawn) [I-944]	< 0.2	< 50	< 50	–	–	–	–
CNc1cc(Nc2cccn(-c3ccnn3C)c2=O)nc2c(C(=O)NC3CCC3)cnn12 [I-328]	< 0.2	–	–	–	–	< 50	< 50
CNc1cc(Nc2cccc(N3CC4(CCO4)C3)n2)nc2c(C(=O)N[C@H]3C[C@H]3F)cnn12 [I-619]	< 0.2	–	–	–	–	< 50	< 50
NC(=O)c1cnn2c(N)cc(Nc3cccc(N4CCOC4=O)n3)nc12 [I-66]	0.2 to 1	–	–	–	–	< 50	50 to 70
CNc1cc(Nc2cc(Cl)cnc2OC(C)C)nc2c(C(=O)N[C@H]3C[C@H]3F)cnn12 [I-148]	0.2 to 1	–	–	–	–	< 50	< 50
CNc1cc(Nc2cccnc2O[C@H]2CC[C@H](OC)CC2)nc2c(C(=O)NC3CC3)cnn12 [I-247]	0.2 to 1	–	–	–	–	< 50	< 50
CNc1cc(Nc2cccn([C@H]3CC[C@H](OC)CC3)c2=O)nc2c(C(=O)N[C@H]3COC[C@H]3O)cnn12 [I-746]	0.2 to 1	–	–	–	–	< 50	< 50
CNc1cc(Nc2cccnc2O[C@H]2C[C@H](OC)C2)nc2c(C(=O)NC3CCC3)cnn12 [I-187]	< 0.2	–	–	–	–	< 50	< 50
CNC(=O)c1nscc1Nc1cc(NC)n2ncc(C(=O)NC3CC3)c2n1 [I-913]	0.2 to 1	< 50	< 50	–	–	–	–
CNc1cc(Nc2cccn(C[C@H]3CCCCO3)c2=O)nc2c(C(=O)NC3CC3)cnn12 [I-412]	0.2 to 1	–	–	–	–	< 50	< 50
CNc1cc(Nc2cccn(C3CC4(COC4)C3)c2=O)nc2c(C(=O)N[C@H]3CC[C@H]3O)cnn12 [I-763]	< 0.2	–	–	–	–	< 50	< 50

SMILES	Kd [1] [nM]	inhibition at 10 µM ([2]; 10 μM compound, 10 μM ATP) [%]	inhibition at 10 µM ([3]; 10 μM compound, 10 μM ATP) [%]	Tyk2 JH1% Inhibition @ 10 μM ([2]; compound at 10 μM, ATP 10 μM)	JAK2 JH1% Inhibition @ 10 μM ([3]; compound at 10 μM, ATP 10 μM)	inhibition at 10 µM ([2]; compound at 10 μM, ATP 10 μM) [%]	inhibition at 10 µM ([3]; compound at 10 μM, ATP 10 μM) [%]
CNc1cc(Nc2cccnc2O[C@@H]2CCOC2)nc2c(C(=O)NC3CC3)cnn12 [I-172]	0.2 to 1	–	–	–	–	< 50	< 50
CNc1cc(-c2cn(C3CCOCC3)c3ncccc23)nc2c(C(=O)N[C@H]3CC[C@H]3O)cnn12 [I-1113]	< 0.2	< 50	< 50	–	–	–	–
CNc1cc(Nc2cccn([C@H]3CCC[C@@H]3OC)c2=O)nc2c(C(=O)NC3CC3)cnn12 [I-436]	0.2 to 1	–	–	A (percent inhibition at 10 μM lower than 50)	A (percent inhibition at 10 μM lower than 50)	–	–
CNc1cc(Nc2ccc3c(n2)CCO3)nc2c(C(=O)N[C@H]3C[C@H]3F)cnn12 [I-632]	< 0.2	–	–	–	–	< 50	< 50
CNc1cc(Nc2cccn([C@H]3CCCOC3)c2=O)nc2c(C(=O)NCC3(CO)CC3)cnn12 [I-699]	< 0.2	–	–	–	–	< 50	< 50
[2H]C([2H])([2H])Oc1ncc(C)cc1Nc1cc(NC)n2ncc(C(=O)NC3CCC3)c2n1 [I-260, N-cyclobutyl-5-((2-(methoxy-d3)-5-methylpyridin-3-yl)amino)-7-(methylamino)pyrazolo[1,5-a]pyrimidine-3-carboxamide]	0.2 to 1	–	–	–	–	< 50	< 50
CC(C)Oc1ncccc1Nc1cc(N)n2ncc(C(N)=O)c2n1 [I-77]	0.2 to 1	–	–	–	–	< 50	< 50
CNc1cc(Nc2cccn(-c3ccccn3)c2=O)nc2c(C(=O)NC[C@H](C)CO)cnn12 [I-730]	< 0.2	–	–	–	–	< 50	< 50
CNc1cc(Nc2cccn(-c3oc(C)nc3C)c2=O)nc2c(C(=O)N[C@@H]3C[C@@H]3F)cnn12 [I-938]	0.2 to 1	< 50	< 50	–	–	–	–
CNc1cc(Nc2cccn([C@H]3CCCOC3)c2=O)nc2c(C(=O)N[C@@H]3COC[C@@H]3O)cnn12 [I-785]	< 0.2	–	–	–	–	< 50	< 50
CNc1cc(Nc2cccn(-c3ccccc3F)c2=O)nc2c(C(=O)NCC(C)CO)cnn12 (stereo not drawn) [I-941]	< 0.2	< 50	< 50	–	–	–	–
CNc1cc(Nc2cccn(C3CCOCC3)c2=O)nc2c(C(=O)NCC(C)CO)cnn12 (stereo not drawn) [I-649]	< 0.2	–	–	–	–	< 50	< 50
CNc1cc(Nc2cccn([C@@H]3CCCOC3)c2=O)nc2c(C(=O)N[C@@H]3COC[C@@H]3O)cnn12 [I-787]	> 10	–	–	–	–	< 50	< 50
CNc1cc(-c2cn(C(C)C)c3ncccc23)nc2c(C(=O)NCC3(CO)CC3)cnn12 [I-587]	0.2 to 1	–	–	–	–	< 50	< 50
CNc1cc(Nc2cccn(C(C)C)c2=O)nc2c(C(=O)N[C@H]3CCC[C@H](O)C3)cnn12 [I-1078]	< 0.2	< 50	< 50	–	–	–	–
CNc1cc(Nc2cccn([C@@H]3CCOC[C@@H]3OC)c2=O)nc2c(C(=O)NC3CC3)cnn12 [I-567]	1 to 10	–	–	–	–	< 50	< 50
CNc1cc(-n2cc(N3CCN(C)CC3)c3ncccc32)nc2c(C(=O)N[C@H]3C[C@H]3F)cnn12 [I-575]	1 to 10	–	–	–	–	< 50	< 50
CNc1cc(Nc2cccn(-c3cccc(F)c3)c2=O)nc2c(C(=O)NC[C@H](C)CO)cnn12 [I-1034]	< 0.2	< 50	< 50	–	–	–	–
NC(=O)c1cnn2c(N)cc(Nc3cccn(-c4ccc(F)cn4)c3=O)nc12 [I-52]	0.2 to 1	–	–	–	–	< 50	< 50

Reference: patent publication US10508120B2, “TYK2 inhibitors and uses thereof” (Nimbus Lakshmi, Inc., priority 2017, dated 2019)
